From US5066674A, “Carbamate inhibitors of cholesterol esterase and their use as hypolipidemic and hypocaloric agents” (University of Iowa Research Foundation, priority 1990, dated 1991)

Target: Pancreatic cholesterol esterase (CEase)
Assay: CEase-catalyzed hydrolysis of p-nitrophenylbutyrate (PNPB), irreversible inhibition timecourse
Assay type: biochemical
Details: for Second-order inhibition rate constant ki/Ki: PNPB substrate, 25.0 °C, pH 7.3, 0.1M sodium phosphate, 0.1N NaCl, 1 mM Triton X100; for t1/2, half-life of irreversible inhibition: in presence of 10^-5 M inhibitor, calculated t1/2 = ln(2)/(ki[I])
Protocol: The CEase-catalyzed hydrolysis of the water-soluble substrate p-nitrophenylbutyrate (PNPB) is the reaction that was routinely used to characterize irreversible inhibitors. The reaction is followed at 25.0±0.1° C. and pH 7.3 in 0.1M sodium phosphate buffer that contains 0.1N NaCl, 1 mM Triton X100, and the appropriate concentrations of CEase and PNPB. Characterization of inhibitors occurs in three steps: First, inhibitor is added to CEase and the percent activity of the enzyme is measured as a function of time. A corresponding control (contains no inhibitor) measures the 100% activity level. Secondly, the pseudo-first order inhibition rate constant is calculated from the activity versus time data.
%A=(%AO -%Ainf)e^-kt +%Ainf (1)
The pseudofirst order inhibition rate constant is plotted versus [I]. If the plot is linear, the second-order inhibition rate constant, ki /Ki, is the slope of a linear-leastsquares fit of the plot. And, thirdly, if plot is nonlinear and hyperbolic, the following inhibition mechanism is indicated: [drawing 5] In this mechanism, the inhibitor first forms a reversible, noncovalent complex, EI, with the enzyme. An enzymic nucleophile, presumably the active site serine (cf. Scheme I) then attacks the carbonyl carbon of the carbamate functionality of the inhibitor, with subsequent expulsion of the aromatic leaving group. For the above mechanism, the dependence of k on [I] is described by the following equation: [formula] […] From this fit the maximum first-order inhibition rate constant (ki) and the dissociation constant of EI (Ki) were determined, and consequently ki /Ki could be calculated.

Structure (SMILES)	Second-order inhibition rate constant ki/Ki [M⁻¹ s⁻¹]	Irreversible inhibition of CEase (statement in words) (comparison of second-order inhibition rate constants of Table I)	t1/2, half-life of irreversible inhibition [min]
CCCCCCCCNC(=O)Oc1ccc2ccccc2c1 [2-Naphthyl n-Octyl Carbamate]	1350	most potent irreversible carbamate inhibitor of CEase	0.86
CCCCNC(=O)Oc1ccc(NC(C)=O)cc1 [p-Acetamidophenyl n-Butyl Carbamate]	40	–	29
CCCCCCNC(=O)Oc1ccc(NC(C)=O)cc1 [p-Acetamidophenyl n-Hexyl Carbamate]	493	–	2.3
CCCCCCCCNC(=O)Oc1ccc(NC(C)=O)cc1 [p-Acetamidophenyl n-Octyl Carbamate]	100	–	11.6
CCCCCNC(=O)Oc1ccc(NC(C)=O)cc1 [p-Acetamidophenyl n-Pentyl Carbamate]	100	–	11.6
